Reference: ChEMBL document CHEMBL2074381, “Pharmacokinetic and prognostic significance of intestinal MDR1 expression in recipients of living-donor liver transplantation” (Clin Pharmacol Ther, 2001)

Biological target: ATP-dependent translocase ABCB1 (Homo sapiens, UniProt P08183)
Assay: TP_TRANSPORTER: mRNA expression level of MDR1 was inversely related to the concentration/dose ratio in vivo, recipients of living-donor liver transplantation
Type: functional, organism-based

Chain of ATP-dependent translocase ABCB1 (P08183 whole entry): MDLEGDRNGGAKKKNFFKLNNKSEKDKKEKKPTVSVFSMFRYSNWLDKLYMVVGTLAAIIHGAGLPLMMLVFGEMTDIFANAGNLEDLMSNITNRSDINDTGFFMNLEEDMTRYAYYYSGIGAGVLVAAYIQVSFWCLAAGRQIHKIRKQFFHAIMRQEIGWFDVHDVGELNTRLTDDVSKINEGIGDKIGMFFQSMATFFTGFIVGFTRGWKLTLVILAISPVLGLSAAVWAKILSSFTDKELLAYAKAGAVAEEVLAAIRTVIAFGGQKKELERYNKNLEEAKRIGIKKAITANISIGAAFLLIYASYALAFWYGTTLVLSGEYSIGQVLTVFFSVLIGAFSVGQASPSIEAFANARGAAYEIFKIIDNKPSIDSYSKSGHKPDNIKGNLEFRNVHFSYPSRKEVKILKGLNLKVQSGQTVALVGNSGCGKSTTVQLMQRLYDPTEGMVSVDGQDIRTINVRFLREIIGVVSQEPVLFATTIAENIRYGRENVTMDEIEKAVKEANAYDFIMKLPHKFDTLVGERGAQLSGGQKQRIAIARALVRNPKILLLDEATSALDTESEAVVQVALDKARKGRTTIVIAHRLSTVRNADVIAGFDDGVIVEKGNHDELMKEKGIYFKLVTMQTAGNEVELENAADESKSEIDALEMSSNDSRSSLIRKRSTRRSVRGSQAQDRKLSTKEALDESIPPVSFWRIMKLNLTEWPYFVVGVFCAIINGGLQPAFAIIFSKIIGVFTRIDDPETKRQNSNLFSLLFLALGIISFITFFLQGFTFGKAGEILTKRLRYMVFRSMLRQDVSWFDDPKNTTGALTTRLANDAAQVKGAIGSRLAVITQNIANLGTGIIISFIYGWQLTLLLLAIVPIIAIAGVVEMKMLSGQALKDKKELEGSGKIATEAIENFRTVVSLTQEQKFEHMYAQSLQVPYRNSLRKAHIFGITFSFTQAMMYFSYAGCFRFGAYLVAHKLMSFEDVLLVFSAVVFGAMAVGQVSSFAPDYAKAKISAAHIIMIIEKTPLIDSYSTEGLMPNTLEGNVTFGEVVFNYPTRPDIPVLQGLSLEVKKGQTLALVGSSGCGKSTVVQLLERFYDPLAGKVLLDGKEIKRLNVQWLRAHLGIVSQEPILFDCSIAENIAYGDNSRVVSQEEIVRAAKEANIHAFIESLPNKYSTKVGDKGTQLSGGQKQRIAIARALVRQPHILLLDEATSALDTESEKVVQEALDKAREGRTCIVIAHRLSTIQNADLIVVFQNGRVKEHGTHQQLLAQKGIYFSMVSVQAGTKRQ

Activity: substrate [+]
SMILES: C=CC[C@@H]1/C=C(\C)C[C@H](C)C[C@H](OC)[C@H]2O[C@@](O)(C(=O)C(=O)N3CCCC[C@H]3C(=O)O[C@H](/C(C)=C/[C@@H]3CC[C@@H](O)[C@H](OC)C3)[C@H](C)[C@@H](O)CC1=O)[C@H](C)C[C@@H]2OC [TACROLIMUS ANHYDROUS]
